In patent US12503444B2, “Compound containing benzene ring and application thereof” (WUHAN LL SCIENCE AND TECHNOLOGY DEVELOPMENT CO., LTD., priority 2019, dated 2025):
Read-outs that look alike come from different tables or passages of the source.

Key:
[1] = molecular target: T1, hP2X4 (human purinergic P2X receptor subtype 4) (Homo sapiens, UniProt Q99571); assay: FLIPR assay of intracellular calcium increase induced by activation of hP2X4 expressed in HEK293 cells (agonist BZ-ATP 2.5 μM); type: cell-based; details: HEK293 cells stably expressing hP2X4, FLIPR, read-out: P2X4 IC50
T1 sequence (Q99571 1-404 isoform Q99571-2): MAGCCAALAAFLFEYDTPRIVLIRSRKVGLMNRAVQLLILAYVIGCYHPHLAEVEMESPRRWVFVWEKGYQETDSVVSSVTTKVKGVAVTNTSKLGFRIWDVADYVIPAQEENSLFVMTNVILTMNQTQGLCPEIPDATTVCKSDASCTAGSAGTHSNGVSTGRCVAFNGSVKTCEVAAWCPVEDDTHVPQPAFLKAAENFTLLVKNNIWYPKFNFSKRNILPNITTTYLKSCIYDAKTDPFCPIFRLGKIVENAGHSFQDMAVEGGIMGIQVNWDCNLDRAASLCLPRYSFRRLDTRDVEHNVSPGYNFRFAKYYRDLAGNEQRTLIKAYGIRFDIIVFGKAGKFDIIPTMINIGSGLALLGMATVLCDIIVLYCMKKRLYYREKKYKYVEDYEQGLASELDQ
Protocol: The antagonist property of the compounds disclosed herein was determined using the FLIPR (fluorescence imaging plate reader) method, wherein the compounds are inhibitors for the intracellular calcium increase induced by activation of hP2X4 (human purinergic P2X receptor subtype 4, accession No. NM_001256796.2) expressed in HEK293 cells (human renal epithelial cell line, ATCC).
HEK293 cells stably expressing hP2X4 were cultured in DMEM high glucose medium containing 10% FBS (fetal bovine serum, Biosera, FB-1058/500), 1% penicillin-streptomycin (Gibco, 15140-122) and 1 mg/mL G418 (CABIOCHE, 345810) in a cell incubator (37° C., […]). Cells at 400,000 cells/mL were seeded into a 384-well plate (10,000 cells/well) 18-24 h prior to the FLIPR experiment and then incubated overnight in a cell incubator. On the day of the experiment, the medium was discarded and the cells were washed in an FLIPR buffer (0.3 mL of probenecid (Thermo, P36400), 0.6 mL of 1 M HEPES (Invitrogen, 15630080) and 29.1 mL of HBSS (Invitrogen, 14065056) per 30 mL of the buffer). Each well was added with 20 μL of 0.5× Calcium 6 fluorescent dye (Molecular Devices, R8190) and then the cells were subjected to dye-loading incubation at 37° C. for 1.5 h. Each well was added with 10 μL of respective test compound (dissolved in DMSO at a concentration of 10 mM and serially diluted with buffer) or vehicle and the mixture was equilibrated for 30 min at room temperature. The cell plate was then placed in the FLIPR for baseline fluorescence measurements (excitation at 485 nm and emission at 525-535 nm). An agonist (BZ-ATP (Sigma, B6396) at a final concentration of 2.5 μM) or a vehicle (ultrapure water) was then added at 10 μL/well, fluorescence values were measured for 2 min at 1-second intervals, and finally the output fluorescence counts were analyzed.

[2] = In vitro metabolic stability, liver microsome incubation (human); type: in vitro ADME; details: human, liver microsomes; 1 mg/mL liver microsome protein, 37° C.; read-out: T1/2 in human liver microsome min
Protocol: The in vitro metabolic stability of the compounds disclosed herein was determined through incubation of liver microsomes of various species. A proper amount of test compound was added into a liver microsome reaction system (1 mg/mL liver microsome protein, 25 U/mL glucose-6 phosphate dehydrogenase, 1 mM NADP, 6 mM D-glucose 6-phosphate and 5 mM MgCl2), and then the mixture was incubated in a water bath kettle at 37° C. to start the reaction. At each time point, 100 μL of the reaction system was added into a centrifuge tube containing 400 μL of internal standard working solution (containing a 200 ng/mL solution of dexamethasone, diclofenac, tolbutamide and labetalol in acetonitrile) precooled at 0° C. so as to stop the reaction, and the mixture was then centrifuged at 10,000 g for 10 min at 4° C. The supernatant was collected for LC-MS assay so as to obtain the values of in vitro metabolic half-life of the test compounds in liver microsomes of various species.

Molecule	IC50 ([1]; class symbols) [nM]	half-life [2] [h]	IC50 ([1]; numeric values) [nM]
Nc1ccc(Cn2cc3c(S(N)(=O)=O)cc(NC(=O)Cc4ccccc4Cl)cc3n2)cn1 [Compound 101, N-(2-((6-aminopyridin-3-yl)methyl)-4-sulfamoyl-2H-indazol-6-yl)-2-(2-chlorophenyl)acetamide]	10 to 50	1.86	
COc1cccc(Cn2cc3c(S(N)(=O)=O)cc(NC(=O)Cc4ccccc4Cl)cc3n2)c1 [Compound 36-A, 2-(2-chlorophenyl)-N-(2-(3-methoxybenzyl)-4-sulfamoyl-2H-indazol-6-yl)acetamide]	10 to 50	1.44	
CC(C)Cn1cc2c(S(N)(=O)=O)cc(NC(=O)Cc3ccccc3Cl)cc2n1 [Compound 7-A, 2-(2-chlorophenyl)-N-(2-isobutyl-4-sulfamoyl-2H-indazol-6-yl)acetamide]		0.988	4.8
COc1cccc(Cn2ncc3c(S(N)(=O)=O)cc(NC(=O)Cc4ccccc4Cl)cc32)c1 [Compound 36-B, 2-(2-chlorophenyl)-N-(1-(3-methoxybenzyl)-4-sulfamoyl-1H-indazol-6-yl)acetamide]	10 to 50	0.962	
CCn1ncc2c(S(N)(=O)=O)cc(NC(=O)Cc3ccccc3Cl)cc21 [Compound 4-B, (4-sulfonamide-6-N-(2-chlorophenylacetyl)-1-ethyl)-indazole]	≤ 10	1.23	
N-(2-(4-chlorobenzyl)-4-sulfamoyl-2H-indazol-6-yl)-2-(2-chlorophenyl)acetamide [Compound 89]	≤ 10		
C[S@](=N)(=O)c1cc(NC(=O)Cc2ccccc2Cl)cc2nn(Cc3ccc(F)cc3)cc12 [Compound 138, (S)-2-(2-chlorophenyl)-N-(2-(4-fluorophenylmethyl)-4-(S-methylsulfonimidoyl)-2H-indazol-6-yl)acetamide]	200 to 5000		
Nc1ccc(Cn2ncc3c(S(N)(=O)=O)cc(NC(=O)Cc4ccccc4Cl)cc32)cc1 [Compound 95A, N-(1-(4-aminobenzyl)-4-sulfamoyl-1H-indazol-6-yl)-2-(2-chlorophenyl)acetamide]	≤ 10		
COc1ccc(Cn2cc3c(S(N)(=O)=O)cc(NC(=O)Cc4ccccc4Cl)cc3n2)c(Cl)c1 [Compound 86]	≤ 10		
CC(C)(C)n1cc2c(S(N)(=O)=O)cc(NC(=O)Cc3ccccc3Cl)cc2n1 [Compound 9, 2-(2-chlorophenyl)-N-(2-(tert-butyl)-4-sulfamoyl-2H-indazol-6-yl)acetamide]	≤ 10		
Cc1ccc(Cn2cc3c(S(N)(=O)=O)cc(NC(=O)Cc4ccccc4Cl)cc3n2)cc1 [Compound 92, 2-(2-chlorophenyl)-N-(2-(4-methylbenzyl)-4-sulfamoyl-2H-indazol-6-yl)acetamide]	≤ 10		
NS(=O)(=O)c1cc(NC(=O)Cc2ccccc2Cl)cc2nn(CCN3CCOCC3)cc12 [Compound 118, 2-(2-chlorophenyl)-N-(2-(2-morpholinoethyl)-4-sulfamoyl-2H-indazol-6-yl)acetamide]	200 to 5000		
NS(=O)(=O)c1cc(NC(=O)Cc2ccccc2Cl)cc2cn(CCO)nc12 [Compound 48-A, 2-(2-chlorophenyl)-N-(2-(2-hydroxyethyl)-7-sulfamoyl-2H-indazol-5-yl)acetamide]	200 to 5000		
NS(=O)(=O)c1cc(NC(=O)Cc2ccccc2Cl)cc2c1CN(C(=O)c1ccc(F)cc1)C2 [Compound 131, 2-(2-chlorophenyl)-N-(2-(4-fluorobenzoyl)-7-sulfamoylisoindolin-5-yl)acetamide]	10 to 50		
NS(=O)(=O)c1cc(NC(=O)Cc2ccccc2Cl)cc2c1ncn2-c1ccc(Cl)cc1 [Compound 55, 2-(2-chlorophenyl)-N-(1-(4-chlorophenyl)-4-sulfamoyl-1H-benzo[d]imidazol-6-yl)acetamide]	10 to 50		
COc1ccc(Cn2cc3c(S(N)(=O)=O)cc(NC(=O)Cc4ccccc4Cl)cc3n2)nc1 [Compound 93]	≤ 10		
Cc1ccccc1CC(=O)Nc1cc([S@@](C)(=N)=O)c2cn(Cc3ccc(F)cc3)nc2c1 [Compound 139, (S)—N-(2-(4-fluorophenylmethyl)-4-(S-methylsulfonimidoyl)-2H-indazol-6-yl)-2-(o-phenylmethyl)acetamide]	200 to 5000		

Second part, the molecule after the results:

IC50 ([1]; class symbols) [nM]	half-life [2] [h]	IC50 ([1]; numeric values) [nM]	Molecule
≤ 10	0.748		NS(=O)(=O)c1cc(NC(=O)Cc2ccccc2Cl)cc2nn(CC3CCCC3)cc12 [Compound 31-A, 2-(2-chlorophenyl)-N-(2-(cyclopentylmethyl)-4-sulfamoyl-2H-indazol-6-yl)acetamide]
	0.301	21.8	NS(=O)(=O)c1cc(NC(=O)Cc2ccccc2Cl)cc2c1cnn2CC(F)F [Compound 12-B, 2-(2-chlorophenyl)-N-(1-(2,2-difluoroethyl)-4-sulfamoyl-1H-indazol-6-yl)acetamide]
	2.58	6.3	Cn1ncc2c(S(N)(=O)=O)cc(NC(=O)Cc3ccccc3Cl)cc21 [Compound 3-B, 2-(2-chlorophenyl)-N-(1-methyl-4-sulfamoyl-1H-indazol-6-yl)acetamide]
≤ 10	1.61		C=CCn1ncc2c(S(N)(=O)=O)cc(NC(=O)Cc3ccccc3Cl)cc21 [Compound 14-B]
200 to 5000			CC(C)C(=O)n1ncc2c(S(N)(=O)=O)cc(NC(=O)Cc3ccccc3Cl)cc21 [Compound 58, 2-(2-chlorophenyl)-N-(1-isobutyryl-4-sulfamoyl-1H-indazol-6-yl)acetamide]
		119	NS(=O)(=O)c1cc(NC(=O)Cc2ccccc2Cl)cc2nn(CC3CC3)cc12 [Compound 15-A, 2-(2-chlorophenyl)-N-(2-(cyclopropylmethyl)-4-sulfonamido-2H-indazol-6-yl)acetamide]
≤ 10			COc1ccc(Cn2cc3c(S(N)(=O)=O)cc(NC(=O)Cc4ccccc4Cl)cc3n2)c(Br)c1 [Compound 87]
200 to 5000			COCCOc1cccc(CC(=O)Nc2cc(S(N)(=O)=O)c3cn(C(F)F)nc3c2)c1 [Compound 116, N-(2-(difluoromethyl)-4-sulfamoyl-2H-indazol-6-yl)-2-(3-(2-methoxyethoxy)phenyl)acetamide]
200 to 5000			NS(=O)(=O)c1cc(NC(=O)Cc2ccccc2Cl)cc2nn(CCO)cc12 [Compound 27-A, 2-(2-chlorophenyl)-N-(2-(2-hydroxyethyl)-4-sulfamoyl-2H-indazol-6-yl)acetamide]
10 to 50			COCCn1cc2c(S(N)(=O)=O)cc(NC(=O)Cc3ccccc3Cl)cc2n1 [Compound 25, 2-(2-chlorophenyl)-N-(2-(2-methoxyethyl)-4-sulfamoyl-2H-indazol-6-yl)acetamide]
200 to 5000			NS(=O)(=O)c1cc(NC(=O)Cc2ccccc2Cl)cc2c1CN(Cc1ccc(F)cc1)C2 [Compound 132, 2-(2-chlorophenyl)-N-(2-(4-fluorobenzyl)-7-sulfamoyliodo-5-yl)acetamide]
10 to 50			CC(C)C(=O)n1cc2c(S(N)(=O)=O)cc(NC(=O)Cc3ccccc3Cl)cc2n1 [Compound 41, 2-(2-chlorophenyl)-N-(2-isobutyryl-4-sulfamoyl-2H-indazol-6-yl)acetamide]
≤ 10			NS(=O)(=O)c1cc(NC(=O)Cc2ccccc2Cl)cc2c1cnn2CC1CCCC1 [Compound 31-B, 2-(2-chlorophenyl)-N-(1-(cyclopentylmethyl)-4-sulfamoyl-1H-indazol-6-yl)acetamide]
10 to 50			NS(=O)(=O)c1cc(NC(=O)Cc2ccccc2Cl)cc2c1cnn2CC1CCCCC1 [Compound 32-B, 2-(2-chlorophenyl)-N-(1-(cyclohexylmethyl)-4-sulfamoyl-1H-indazol-6-yl)acetamide]
